Test results reported in patent EP0336753A1, “Improvements in or relating to propanamine derivatives” (ELI LILLY AND COMPANY, priority 1988, dated 1989).
Read-outs that look alike come from different tables or passages of the source.

Columns and labels:
[1] = molecular target: T1, serotonin (5HT) uptake (Rattus norvegicus, UniProt P31652); experiment: Inhibition of synaptosomal uptake of 3H-serotonin in vitro; type: biochemical, rats; conditions: for inhibition at 1 µM: 1000 nM test compound, number in parentheses, read-out: percent inhibition at 1000 nM (5HT)
T1 construct: Crude synaptosomal preparations were isolated after differential centrifugation; from tissue; host or cells: rat cerebral cortex, crude synaptosomes
T1 sequence (P31652 whole entry): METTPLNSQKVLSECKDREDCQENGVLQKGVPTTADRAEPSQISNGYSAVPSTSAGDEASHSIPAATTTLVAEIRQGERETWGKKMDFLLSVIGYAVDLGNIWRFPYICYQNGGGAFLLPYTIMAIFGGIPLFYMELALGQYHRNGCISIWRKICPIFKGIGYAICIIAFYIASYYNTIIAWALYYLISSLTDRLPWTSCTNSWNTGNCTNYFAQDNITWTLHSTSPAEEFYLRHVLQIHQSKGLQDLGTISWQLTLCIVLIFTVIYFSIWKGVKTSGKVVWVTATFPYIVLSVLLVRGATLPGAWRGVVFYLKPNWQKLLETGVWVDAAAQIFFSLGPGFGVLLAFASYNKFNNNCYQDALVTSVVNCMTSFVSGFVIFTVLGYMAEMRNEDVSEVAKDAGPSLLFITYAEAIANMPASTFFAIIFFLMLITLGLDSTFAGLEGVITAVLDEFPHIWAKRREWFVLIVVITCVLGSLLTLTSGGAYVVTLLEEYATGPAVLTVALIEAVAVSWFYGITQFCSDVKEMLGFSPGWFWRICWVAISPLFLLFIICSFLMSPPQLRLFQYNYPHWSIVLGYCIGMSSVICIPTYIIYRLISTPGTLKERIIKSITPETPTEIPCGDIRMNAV
Method: (§1) This general procedure is set forth by Wong et al., in Drug Development Research 6:397-403 (1985).
(§2) Male Sprague-Dawley rats (110-150 g) from Harlan Industries (Cumberland, IN) were fed a Purina Chow ad libitum for at least 3 days before being used in the studies. Rats were killed by decapitation. Whole brains were removed and dissected. Cerebral cortex was homogenized in 9 volumes of a medium containing 0.32 M sucrose and 10 mM glucose. Crude synaptosomal preparations were isolated after differential centrifugation at 1,000 g for 10 min. and 17,000 g for 28 min. The final pellets were suspended in the same medium and kept in ice until use within the same day.
(§3) Synaptosomal uptake of ³H-serotonin(³H-5-hydroxytryptamine, ³H-5HT) and ¹⁴C-ℓ-norepinephrine (¹⁴C-NE) was determined as follows. Cortical synaptosomes (equivalent to 1 mg of protein) were incubated at 37°C for 5 min in 1 ml of Krebs-bicarbonate medium containing also 10 mM glucose, 0.1 mM iproniazid, 1 mM ascorbic acid, 0.17 mM EDTA, 50nM, ³H-5HT and 100 nM ¹⁴C-NE. The reaction mixture was immediately diluted with 2 ml of ice-chilled Krebs-bicarbonate buffer and filtered under vacuum with a cell harvester (Brandel, Gaithersburg, MD). Filters were rinsed twice with approximately 5 ml of ice-chilled 0.9% saline and were transferred to a counting vial containing 10 ml of scintillation fluid (PCS, Amersham, Arlington Heights, IL). Radioactivity was measured by a liquid scintillation spectrophotometer. Accumulation of ³H-5HT and ¹⁴C-NE at 4°C represented the background and was subtracted from all samples.
(§4) The results of the evaluation of various compounds of the present invention are set forth below in Table I. In the Table, column 1 identifies the Example number of the compounds evaluated, and columns 2 and 3 provide the concentration of the test compound at 10⁻⁹M (nM) needed to inhibit 50% of serotonin (5HT) or norepinephrine, respectively, and is indicated in the Table as IC₅₀. The numbers in parentheses represent percent inhibition at 1000 nM.

[2] = molecular target: T2, norepinephrine (NE) uptake (Rattus norvegicus, UniProt Q63380); experiment: Inhibition of synaptosomal uptake of 14C-l-norepinephrine in vitro; type: biochemical, rats; conditions: for IC50: 100 nM ¹⁴C-NE, 37°C for 5 min, read-out: IC₅₀(nM) NE; for inhibition at 1 µM: read-out: percent inhibition at 1000 nM (NE)
T2 construct: Crude synaptosomal preparations were isolated after differential centrifugation; from tissue; host or cells: rat cerebral cortex, crude synaptosomes
T2 sequence (Q63380 1-617): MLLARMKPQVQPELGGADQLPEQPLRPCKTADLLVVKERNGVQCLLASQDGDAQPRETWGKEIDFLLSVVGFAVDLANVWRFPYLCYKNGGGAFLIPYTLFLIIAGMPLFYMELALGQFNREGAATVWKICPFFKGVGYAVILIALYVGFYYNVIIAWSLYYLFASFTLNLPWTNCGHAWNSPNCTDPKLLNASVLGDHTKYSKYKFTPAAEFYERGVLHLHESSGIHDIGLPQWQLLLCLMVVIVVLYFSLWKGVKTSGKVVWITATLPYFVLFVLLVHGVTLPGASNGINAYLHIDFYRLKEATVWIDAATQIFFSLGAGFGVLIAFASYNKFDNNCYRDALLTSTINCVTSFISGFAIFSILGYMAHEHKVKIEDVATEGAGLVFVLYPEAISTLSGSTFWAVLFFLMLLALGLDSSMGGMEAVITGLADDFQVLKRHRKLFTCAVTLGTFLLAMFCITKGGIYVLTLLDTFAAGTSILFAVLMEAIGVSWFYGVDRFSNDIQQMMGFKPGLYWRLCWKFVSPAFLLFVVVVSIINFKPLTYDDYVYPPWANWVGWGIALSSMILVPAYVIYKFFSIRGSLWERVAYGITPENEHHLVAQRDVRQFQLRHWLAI
Method: as §1, §2, §3, §4

[3] = rat cerebral cortex synaptosomes
[4] = 1000 nM test compound, number in parentheses, rat cerebral cortex synaptosomes

SMILES	IC50 [1] [nM]	IC50 [2, 3] [nM]	inhibition at 1 µM [2] [%]	inhibition at 1 µM [1, 3] [%]	IC50 ([1]; rat cerebral cortex synaptosomes, 50 nM ³H-5HT, 37°C for 5 min, read-out: IC₅₀(nM) 5HT) [nM]	inhibition at 1 µM [2, 4] [%]
CSc1ccc(OC(CCN(C)C)c2ccccc2)cc1 (centres unmarked) [Example 1, N,N-Dimethyl-γ-[4-(methylthio)phenoxy]benzenepropanamine ethanedioate]	160	> 1000	18			
CNCCC(Oc1ccc(SC)cc1)c1ccccc1 (centres unmarked) [Example 2, N-Methyl-γ-[4-(methylthio)phenoxy]benzenepropanamine ethanedioate]	48	704				
CNCCC(Oc1ccc(SC(F)(F)F)cc1)c1ccccc1 (centres unmarked) [Example 3, N-Methyl-γ-{4-[trifluoromethyl)thio]phenoxy}benzenepropanamine ethanedioate]		> 1000		39	> 1000	9
CN(C)CCC(Oc1ccc(S(N)(=O)=O)cc1)c1ccccc1 (centres unmarked) [Example 4, 4-[3-(Dimethylamino)-1-phenylpropoxy]benzenesulfonamide ethanedioate]	> 1000	> 1000	0	15		
CN(C)CCC(Oc1ccc(NS(C)(=O)=O)cc1)c1ccccc1 (centres unmarked) [Example 5, N-{4-[1-Phenyl-3-(dimethylamino)propoxy]phenyl}methanesulfonamide]	> 1000	> 1000		30		15
